In series [1] the test system is chimeric KDPGal aldolase (DgoA) variant NR8.165-2 (family shuffling of EC03-1, KP03-3 and ST04-5), GST fusion protein. In words: DAHP formation kinetics, family-shuffled variant NR8.165-2 (Table 10). The series is classed as biochemical, chimera of E. coli, K. pneumoniae and S. typhimurium. How it is done:
(§1) Enzyme activity is measured by following the formation of 3-dehydroshikimic acid (DHS) over time when DHQ synthase (3-dehydroquinate synthase, E.C. 4.2.3.4) and DHQ dehydratase (E.C. 4.2.1.10) are utilized as coupling enzymes. DHQ synthase is prepared as described in Frost, J. W. et al., Biochemistry, 1984, 23, 4470-75; DHQ dehydratase is purified from E. coli AB2848/pKD201 The reaction (1 mL) contains 50 mM morpholinepropanesulfonic acid (MOPS) buffer (pH 7.5), 1 mM D-erythrose 4-phosphate, 1 mM pyruvate, 50 μM CoCl2, 10 μM NAD, 1 U of DHQ synthase, 1 U of DHQ dehydratase and cellular lysate. The reaction is initiated by addition of diluted cellular lysate to the assay solution, and the absorbance at 234 nm monitored continuously for 5 min. One unit of evolved enzyme activity is defined by the formation of one μmol of DHS per minute.
(§2) The the dgoA mutants, EC03-1, KP03-3 and ST04-5, were subjected to DNA family shuffling using the single-stranded DNA shuffling method developed by Zhao and coworkers: Zha, W; Zhu, T; Zhao, H., Methods Mol. Biol. 2003, 231, 91-97. […] The dgoA gene hybrids from the five largest colonies that appeared after 2.5 days were sequenced and their encoding KDPGal aldolase activities toward DAHP formation were determined as shown in Table 9.

Series [2] has as its system E. coli native DAHP synthase AroG. The settings on record: Sheflyan et al. 1998, cited from earlier work.
The subject of series [3] is E. coli native DAHP synthase AroH. The settings on record: Akowski & Bauerle 1997, cited from earlier work.
In series [4] the target is S. typhimurium KDPGal aldolase (DgoA) variant ST04-5 (D20E, V28M, S42T, I89T, P150L, D178G; parent SEQ ID NO:6), GST fusion protein (Salmonella enterica, UniProt A0A0H3NU26, D178G/D20E/I89T/P150L/S42T/V28M). As to the kind of experiment: DAHP formation kinetics, evolved variant ST04-5 (Table 10). The series is classed as biochemical. To be noted: purified as GST fusion protein. As for the experimental part:
as §1, with “The reaction is initiated by addition of diluted cellular lysate to the assay solution, and the absorbance at 234 nm monitored continuously for 5 min.” left out

The test system of series [5] is chimeric KDPGal aldolase (DgoA) variant NR8.165-4 (family shuffling of EC03-1, KP03-3 and ST04-5), GST fusion protein. As to the kind of experiment: DAHP formation kinetics, family-shuffled variant NR8.165-4 (Table 10). The series is classed as biochemical, chimera of E. coli, K. pneumoniae and S. typhimurium. As for the experimental part:
as §1, §2

Series [6] concerns E. coli native DAHP synthase AroF. The settings on record: Ramilo & Evans 1997, cited from earlier work.
The test system of series [7] is chimeric KDPGal aldolase (DgoA) variant NR8.165-6 (family shuffling of EC03-1, KP03-3 and ST04-5), GST fusion protein. As to the kind of experiment: DAHP formation kinetics, family-shuffled variant NR8.165-6 (Table 10). The series is classed as biochemical, chimera of E. coli, K. pneumoniae and S. typhimurium. How it is done:
as §1, §2

The subject of series [8] is O=C[C@H](O)[C@H](O)COP(=O)(O)O. As to the kind of experiment: DAHP formation kinetics, wild-type K. pneumoniae KDPGal aldolase (Table 10). To be noted: other: purified as GST fusion protein; pH 7.5. The series is classed as biochemical, Klebsiella pneumoniae. How it is done:
as §1

The test system of series [9] is O=C[C@H](O)[C@H](O)COP(=O)(O)O. As to the kind of experiment: DAHP formation kinetics, evolved variant ST04-5 (Table 10). The series is classed as biochemical, Salmonella typhimurium. The settings on record: other: purified as GST fusion protein; pH 7.5. How it is done: as §1, with “The reaction is initiated by addition of diluted cellular lysate to the assay solution, and the absorbance at 234 nm monitored continuously for 5 min.” left out

In series [10] the test system is O=C[C@H](O)[C@H](O)COP(=O)(O)O. In words: DAHP formation kinetics, wild-type S. typhimurium KDPGal aldolase (Table 10). It is filed as biochemical, Salmonella typhimurium. To be noted: other: purified as GST fusion protein; pH 7.5. How it is done: as §1
Substrate in series [11]: O=C[C@H](O)[C@H](O)COP(=O)(O)O
In words: DAHP formation kinetics, evolved variant EC03-1 (Table 10). It is filed as biochemical, Escherichia coli. To be noted: other: purified as GST fusion protein; pH 7.5. How it is done:
as §1, with “1 U of DHQ dehydratase and cellular lysate. The reaction is initiated by addition of diluted cellular lysate to the assay solution, and the absorbance at 234 nm monitored continuously for 5 min.” left out

Substrate in series [12]: O=C[C@H](O)[C@H](O)COP(=O)(O)O
As to the kind of experiment: DAHP formation kinetics, wild-type E. coli KDPGal aldolase (Table 10). It is filed as biochemical, Escherichia coli. The settings on record: other: purified as GST fusion protein; pH 7.5. How it is done:
as §1, with “1 U of DHQ dehydratase and cellular lysate. The reaction is initiated by addition of diluted cellular lysate to the assay solution, and the absorbance at 234 nm monitored continuously for 5 min.” left out

[13] abbreviates: purified as GST fusion protein, read-out: Km (E4P).
Where [14] appears, read: relative to parent enzymes EC03-1 and ST04-5.
Where [15] appears, read: read-out: Km for D-erythrose 4-phosphate.
Where [16] appears, read: compared with the wild-type E. coli KDPGal aldolase.

Sequence of S. typhimurium KDPGal aldolase (DgoA) variant ST04-5 (D20E, V28M, S42T, I89T, P150L, D178G; parent SEQ ID NO:6), GST fusion protein (A0A0H3NU26 whole entry D178G/D20E/I89T/P150L/S42T/V28M, the tested form may be a part): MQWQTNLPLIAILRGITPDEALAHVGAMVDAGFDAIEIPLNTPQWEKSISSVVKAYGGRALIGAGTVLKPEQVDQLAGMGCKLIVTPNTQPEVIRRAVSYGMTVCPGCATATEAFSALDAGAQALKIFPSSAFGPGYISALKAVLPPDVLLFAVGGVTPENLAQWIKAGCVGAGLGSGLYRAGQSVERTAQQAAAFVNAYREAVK

For `O=C[C@H](O)[C@H](O)COP(=O)(O)O` [E4P, D-erythrose 4-phosphate], the kcat in series [1] (purified as GST fusion protein) was 2.51 s⁻¹; in series [2], 10.3 s⁻¹; in series [3], 20.6 s⁻¹; in series [4], 3.24 s⁻¹; in series [5] (purified as GST fusion protein) it was 4.76 s⁻¹; in [6], 29.5 s⁻¹. The catalytic constant (kcat) in series [7] (purified as GST fusion protein) came to 0.504 s⁻¹. Besides, the kcat/Km in series [1] (purified as GST fusion protein) is 16000 M⁻¹ s⁻¹; in [4], 27200 M⁻¹ s⁻¹; in [5] (purified as GST fusion protein), 41400 M⁻¹ s⁻¹; in series [7] (purified as GST fusion protein), 6300 M⁻¹ s⁻¹. Also, the Km is 157 µM in series [1] (setting [13]); 141 µM in series [2] (setting [15]); 35 µM in series [3] (setting [15]); 115 µM in series [5] (setting [13]); 81.4 µM in series [6] (setting [15]); 80 µM in [7] (setting [13]). Further, the “kcat/Km relative to parent enzymes” value in series [1] (setting [14]) and in [7] (setting [14]) was “decrease in kcat/Km values relative to their parent enzymes” in each case. The same molecule displayed an increase in kcat in series [5] (setting [16]) of 5 fold. In series [5] (setting [16]), the “increase in kcat/Km” value turned out to be 25 fold. In addition, the “reduction in Km for D-erythrose 4-phosphate” value in series [5] (setting [16]) came to 5 fold.
Consider “Klebsiella pneumoniae KDPGal aldolase (DgoA), wild type, SEQ ID NO:4, GST fusion protein (Klebsiella pneumoniae subsp. pneumoniae MGH 78578)”, for which the Km in series [8] is 1507 µM.
On to “S. typhimurium KDPGal aldolase (DgoA) variant ST04-5 (D20E, V28M, S42T, I89T, P150L, D178G; parent SEQ ID NO:6), GST fusion protein (Salmonella enterica subsp. enterica serovar Typhimurium str. SL1344; D178G/D20E/I89T/P150L/S42T/V28M)”, for which the Michaelis-Menten constant (Km) in [9] was 119 µM.
As for “Salmonella typhimurium KDPGal aldolase (DgoA), wild type, SEQ ID NO:6, GST fusion protein (Salmonella enterica subsp. enterica serovar Typhimurium str. SL1344)”, in series [10], the Km came out at 685 µM.

B1: E. coli KDPGal aldolase (DgoA) variant EC03-1 (F33I, D58N, Q72H, A75V, V85A, V154F; parent SEQ ID NO:2), GST fusion protein (Escherichia coli K-12; … (protein)
chain: MQWQTKLPLIAILRGITPDEALAHVGAVIDAGIDAVEIPLNSPQWEQSIPAIVDAYGNKALIGAGTVLKPEHVDVLARMGCQLIATPNIHSEVIRRAVGYGMTVCPGCATATEAFTALEAGAQALKIFPSSAFGPQYIKALKAVLPSDIAVFAFGGVTPENLAQWIDAGCAGAGLGSDLYRAGQSVERTAQQAAAFVKAYREAVQ
For B1, in [11], the Km turned out to be 124 µM, the catalytic constant (kcat) is 2.49 s⁻¹ and the kcat/Km was found to be 20100 M⁻¹ s⁻¹.

B2: Escherichia coli KDPGal aldolase (DgoA), wild type, SEQ ID NO:2, GST fusion protein (Escherichia coli K-12) (protein)
chain: MQWQTKLPLIAILRGITPDEALAHVGAVIDAGFDAVEIPLNSPQWEQSIPAIVDAYGDKALIGAGTVLKPEQVDALARMGCQLIVTPNIHSEVIRRAVGYGMTVCPGCATATEAFTALEAGAQALKIFPSSAFGPQYIKALKAVLPSDIAVFAVGGVTPENLAQWIDAGCAGAGLGSDLYRAGQSVERTAQQAAAFVKAYREAVQ
Consider B2, for which, in series [12], the Km amounted to 571 µM, the kcat is 0.94 s⁻¹ and the kcat/Km came to 1650 M⁻¹ s⁻¹.

For orientation: kcat means the maximal rate divided by the concentration of active sites. In general, kcat/Km refers to the second-order rate constant that governs catalysis at low substrate concentration. For orientation: Km means the concentration of substrate that gives half-maximal velocity.

Source of the values: US8372621B2, “Methods and materials for the production of shikimic acid” (priority 2003, dated 2013).
